System: ERK1 and ERK2
Experiment: Western blot for phosphorylated ERK in M2 cells
Format: cell-based, mouse
Settings: 5 μM 20S, 1, 4 or 8 hours
Protocol: Western blot analysis—After treatments, cells were lysed in lysis buffer, protein concentrations determined using the Bio-Rad protein assay (Hercules, Calif. U.S.A.), and SDS-PAGE performed as previously described. Probing for native and phosphorylated ERKs was performed as previously reported.
(A) M2 cells at confluence were pretreated for four hours with RPMI containing 1% FBS, followed by treatment with control vehicle or 5 μM 20S oxysterol for 1, 4, or 8 hours. Next total cell extracts were prepared and analyzed for levels of native or phosphorylated ERK (pERK) using specific antibodies as previously described. Data from a representative of four experiments are shown, each treatment shown in duplicate samples. (B) M2 cells at confluence were pretreated for 2 hours with control vehicle (C) or 20 μM PD98059 (PD) in osteogenic medium as previously described. Next, a combination of 22R and 20S oxysterols (RS, 5 μM each) were added to appropriate wells as indicated. After 10 days of incubation, matrix mineralization was quantified by the ^45Ca incorporation assay as previously described. Data from a representative of three experiments are reported as the mean±SD of quadruplicate determinations, normalized to protein concentration (p<0.01 for RS vs. RS+PD). […] After 10 days, adipocytes were visualized by oil Red O staining and quantified by light microscopy as previously described. […]

CC(C)CCC[C@](C)(O)[C@H]1CC[C@H]2[C@@H]3CC=C4C[C@@H](O)CC[C@]4(C)[C@H]3CC[C@@]21C [20S, 20(S)-hydroxycholesterol]
activation of ERK1 and ERK2: sustained activation

— patent publication US7897588B2, “Agents and methods for enhancing bone formation” (The Regents of the University of California, priority 2003, dated 2011)
